Laboratory results reported in patent publication US9162992B2, “Compounds and compositions for treatment of breathing control disorders or diseases” (GALLEON PHARMACEUTICALS, INC., priority 2010, dated 2015).
Structures can show the parent of a compound that is named as a salt.

What was measured:
[1] = test system: spontaneously breathing rats; experiment: Minute ventilation (MV) and cardiovascular parameters in naive rats; assay type: in vivo, rat; parameters: unit not given here
Experimental: All surgical procedures were performed under anesthesia induced by 2% isoflurane in compressed medical grade air. With rats in supine position, the right femoral vein was catheterized using polyethylene tubing (PE-50). This catheter was used for fluid and drug administration. Simultaneously, the right femoral artery was also catheterized for monitoring blood pressure and heart rate. In order to measure the respiratory parameters in spontaneously breathing rats, trachea was intubated using 13 gauge tracheal tube (2.5 mm ID, Instech Solomon, Pa.).
After establishing a stable base-line at 1.5% isoflurane, compounds (typically at a dose of 1 mpk) were administered IV, and ventilatory parameters were generated from spontaneously breathing rats, along with cardiovascular output (mean arterial pressure (MAP) and heart rate). Maximum peak minute ventilatory (MV) responses (MPR), along with changes in minute ventilation versus baseline (AMV) were obtained as shown in the tables below.

[2] = Solubility in solvents and IV solutions; assay type: physicochemical; settings: water, thermodynamic from solid, Solubility
Experimental: The solubility of (XXXXVI) and XXXV was evaluated in various solvents and IV solutions. Due to limits on the API supply at the time the study was conducted, most of the solvent systems were evaluated to a level of only 100 mg/mL even if the solution was not saturated at this level. Only in water was an attempt made to reach saturation solubility, regardless of how high that solubility might be. Solubility of the salt/free base in each solvent was evaluated in duplicate.
For solubility in water, drug was added with intermittent shaking to ensure that excess undissolved drug is present indicating saturation […]. The filtrates were diluted appropriately and analyzed for (XXXV) concentration by HPLC.

[3] = Table 8, 1 mpk, 20% HPβCD, pH 4
[4] = Table 8, 1 mpk, 20% HPβCD, pH 6
[5] = Table 8, 1 mpk, 20% HPβCD, pH 4.5
[6] = 1 mpk IV, 20% HPβCD, pH not given

CCCNc1nc(NCCC)c2cc[nH]c2n1
MV MPR ([1]; 1 mpk IV, 20% HPβCD, pH 4-6): 336
MV ΔMV ([1]; 1 mpk IV, 20% HPβCD, pH 4-6): 164

C=CCNc1nc(N2CCC(c3nc(NCCC)nc(NCCC)n3)CC2)c2ccn(C)c2n1 [6-(1-(2-(allylamino)-7-methyl-7H-pyrrolo[2,3-d]pyrimidin-4-yl)piperidin-4-yl)-N^2,N^4-di-n-propyl-1,3,5-triazine-2,4-diamine]
MV MPR ([1]; 1 mpk IV, 20% HPβCD, pH 5): 154
MV ΔMV ([1]; 1 mpk IV, 20% HPβCD, pH 5): 60

CCCNc1nc(N(C)N(C)C)c2ccn(C)c2n1 [7-methyl-N-n-propyl-4-(1,2,2-trimethylhydrazinyl)-7H-pyrrolo[2,3-d]pyrimidin-2-amine]
MV MPR ([1]; 1 mpk IV, 15/65/20, pH 5): 167
MV ΔMV ([1]; 1 mpk IV, 15/65/20, pH 5): 89
MV MPR ([1]; 1 mpk IV, 20% HPβCD, pH 4): 175
MV ΔMV ([1]; 1 mpk IV, 20% HPβCD, pH 4): 83

CC(C)CNc1nc(NCC(C)C)nc(N2C3CCC2CC(=O)C3)n1 [(1,5)-8-(4,6-bis(isobutylamino)-1,3,5-triazin-2-yl)-8-azabicyclo[3.2.1]octan-3-one]
MV MPR ([1]; 1 mpk IV, 20% HPβCD, pH 5): 237
MV ΔMV ([1]; 1 mpk IV, 20% HPβCD, pH 5): 137

CCCNc1nc(NCCC)nc(N2C3CCC2CC(=O)C3)n1 [(1,5)-8-(4,6-bis(n-propylamino)-1,3,5-triazin-2-yl)-8-azabicyclo[3.2.1]octan-3-one]
MV MPR ([1]; 1 mpk IV, 20% HPβCD, pH 5): 213
MV ΔMV ([1]; 1 mpk IV, 20% HPβCD, pH 5): 98

CCCNc1nc2c(c(N3CCC(O)CC3)n1)CCN2C [CLII, 2-(n-Propyl)amino-4-(4-hydroxypiperidin-1-yl)-7-methyl-pyrrolidino[2,3-d]pyrimidine]
MV MPR ([1]; 1 mpk IV, 20% HPβCD, pH 4): 49
MV ΔMV ([1]; 1 mpk IV, 20% HPβCD, pH 4): 0.33

CCCNc1nc2c(c(N3C4CCC3CC(O)C4)n1)CCN2C (stereo not drawn) [CLV, 8-(7-methyl-2-(n-propylamino)-pyrrolidino[2,3-d]pyrimidin-4-yl)-8-azabicyclo[3.2.1]octan-3-ol]
MV MPR ([1]; 1 mpk IV, 20% HPβCD, pH 4): 170
MV ΔMV ([1]; 1 mpk IV, 20% HPβCD, pH 4): 57

C=CCNc1nc(NOC)c2ccn(C)c2n1 [CLX, N-(2-(Propen-2-yl)amino-7-methyl-pyrrolo[2,3d]pyrimidin-4-yl)-O-methyl-hydroxylamine]
MV MPR ([1]; 1 mpk IV, 20% HPβCD, pH 5): 182
MV ΔMV ([1]; 1 mpk IV, 20% HPβCD, pH 5): 103

COCCCNc1nc(NCCCOC)nc(N(C)OC)n1 [CXIII]
MV DMV [1, 3]: 46
MV MPR [1, 3]: 167.1

CCCNc1nc(N(C)OC)c2cc[nH]c2n1 [CXLI, N-(2-Propylamino-7H-pyrrolo[2,3d]pyrimidin-4-yl)-N,O-dimethyl-hydroxylamine]
MV MPR ([1]; 1 mpk IV, 20% HPβCD, pH 4-6): 264
MV ΔMV ([1]; 1 mpk IV, 20% HPβCD, pH 4-6): 163

CCCNc1nc(NCCC)c2c(n1)NCC2 [CXLIX, 2,4-Bis-(n-propyl)amino-7H-pyrrolidino[2,3-d]pyrimidine]
MV MPR ([1]; 1 mpk IV, 20% HPβCD, pH 4): 175
MV ΔMV ([1]; 1 mpk IV, 20% HPβCD, pH 4): 93
MV MPR ([1]; 1 mpk IV, 20% HPβCD, pH 6): 263
MV ΔMV ([1]; 1 mpk IV, 20% HPβCD, pH 6): 167
MV DMV [1, 3]: 93
MV MPR [1, 3]: 175
MV DMV [1, 4]: 167
MV MPR [1, 4]: 263

CON(C)c1nc2nc(n1)NCCOCCOCCOCCN2 [CXVII, N-(5,8,11-Trioxa-2,14,16,18,19-pentaazabicyclo[13.3.1]nonadeca-1(18),15 (19),16(17)-trien-17-yl)-N,O-dimethylhydroxylamine]
MV DMV [1, 5]: 15
MV MPR [1, 5]: 143.8

CON(C)c1nc(NCC2CCOCC2)nc(NCC2CCOCC2)n1 [CXV]
MV DMV ([1]; Table 8, 1 mpk, 15/65/20, pH 4): 33.8
MV MPR ([1]; Table 8, 1 mpk, 15/65/20, pH 4): 155.7

CCCNc1nc(NC(C)C)c2c(n1)N(C)CC2 [CXXVI]
MV MPR ([1]; 1 mpk IV, 20% HPβCD, pH 5): 327
MV ΔMV ([1]; 1 mpk IV, 20% HPβCD, pH 5): 224

CCCNc1nc(NC)c2c(n1)N(C)CC2 [CXXXI, 2-(n-Propyl)amino-4-methylamino-7-methyl-pyrrolidino[2,3-d]pyrimidine]
MV MPR ([1]; 1 mpk IV, 20% HPβCD, pH 4): 204
MV ΔMV ([1]; 1 mpk IV, 20% HPβCD, pH 4): 130

CCCNc1nc(NC(C)C)c2c(n1)N(C(C)C)CC2 [CXXXVI, 2-(n-Propyl)amino-4-(i-propyl)amino-7-i-propyl-pyrrolidino[2,3-d]pyrimidine]
MV MPR ([1]; 1 mpk IV, 20% HPβCD, pH 4): 238
MV ΔMV ([1]; 1 mpk IV, 20% HPβCD, pH 4): 143

CCCNc1cc(N(C)OC)nc(NCCC)n1 [CXX]
MV MPR ([1]; 1 mpk IV, 20% HPβCD, pH 4-6): 355
MV ΔMV ([1]; 1 mpk IV, 20% HPβCD, pH 4-6): 243
MV DMV [1, 5]: 243
MV MPR [1, 5]: 355

CCCNc1nc(NCCC)nc(N(C)OCc2ccccc2)n1 [LIII, O-Benzyl-N-(4,6-bis-n-propylamino-[1,3,5]triazin-2-yl)-N-methyl-hydroxylamine]
MV MPR ([1]; 1 mpk IV, 20% HPβCD, pH 4-6): 288
MV ΔMV ([1]; 1 mpk IV, 20% HPβCD, pH 4-6): 179

CCCNc1nc(NCCC)nc(N(C)OC(C)C)n1 [LXIV, N-(4,6-Bis-n-propylamino-[1,3,5]triazin-2-yl)-O-isopropyl-N-methyl-hydroxylamine]
MV MPR [1, 6]: 271
MV ΔMV [1, 6]: 209

CCCNc1nc(NCCC)nc(N(OCc2ccccc2)C(C)C)n1 [LXXII, 6-((Benzyloxy)(isopropyl)amino)-N^2,N^4-dipropyl-1,3,5-triazine-2,4-diamine]
MV DMV [1, 3]: 82
MV MPR [1, 3]: 176

CCCNc1nc(NCCC)nc(N(CC)OC(C)C)n1 [LXXVI, N-(4,6-Bis-n-propylamino-[1,3,5]triazin-2-yl)-N-ethyl-O-isopropyl-hydroxylamine]
MV MPR ([1]; 1 mpk IV, 20% HPβCD, pH 4): 308
MV ΔMV ([1]; 1 mpk IV, 20% HPβCD, pH 4): 191
MV DMV [1, 3]: 191
MV MPR [1, 3]: 308

CCCNc1nc(NCCC)nc(N(C)OCC(C)C)n1 [LXXXII, N-(4,6-Bis-n-propylamino-[1,3,5]triazin-2-yl)-O-isobutyl-N-methyl-hydroxylamine]
MV MPR ([1]; 1 mpk IV, 20% HPβCD, pH 4): 248
MV ΔMV ([1]; 1 mpk IV, 20% HPβCD, pH 4): 133
MV DMV [1, 3]: 133
MV MPR [1, 3]: 248

CCCNc1nc(NCCC)nc(N(C)OCc2cccs2)n1 [LXXXIV, 6-(Methyl(thiophen-2-ylmethoxy)amino)-N^2,N^4-di-n-propyl-1,3,5-triazine-2,4-diamine]
MV MPR ([1]; 1 mpk IV, 20% HPβCD, pH 4): 213
MV ΔMV ([1]; 1 mpk IV, 20% HPβCD, pH 4): 110
MV DMV [1, 3]: 110
MV MPR [1, 3]: 213

CCCNc1nc(NCC)nc(NOC)n1 [N^2-ethyl-6-(methoxyamino)-N^4-n-propyl-1,3,5-triazine-2,4-diamine]
MV MPR ([1]; 1 mpk IV, 20% HPβCD, pH 4-6): 208
MV ΔMV ([1]; 1 mpk IV, 20% HPβCD, pH 4-6): 117

CCCNc1nc(NC(C)C)c2ccn(C(C)C)c2n1 [N^4,7-diisopropyl-N^2-n-propyl-7H-pyrrolo[2,3-d]pyrimidine-2,4-diamine]
MV MPR ([1]; 1 mpk IV, 20% HPβCD, pH 6): 250
MV ΔMV ([1]; 1 mpk IV, 20% HPβCD, pH 6): 155

CCCNc1nc(NC(C)C)c2ccn(C)c2n1 [N^4-isopropyl-7-methyl-N^2-n-propyl-7H-pyrrolo[2,3-d]pyrimidine-2,4-diamine]
MV MPR ([1]; 1 mpk IV, 20% HPβCD, pH 5): 402
MV ΔMV ([1]; 1 mpk IV, 20% HPβCD, pH 5): 320

CCCNc1nc(NC(C)C)c2cc[nH]c2n1 [N^4-isopropyl-N^2-n-propyl-7H-pyrrolo[2,3-d]pyrimidine-2,4-diamine]
MV MPR ([1]; 1 mpk IV, 20% HPβCD, pH 4): 259
MV ΔMV ([1]; 1 mpk IV, 20% HPβCD, pH 4): 172

CCCNc1nc(NCCC)nc(N(C)OCC2CC2)n1 [XCI, N-(4,6-Bis-n-propylamino-[1,3,5]triazin-2-yl)-O-cyclopropylmethyl-N-methyl-hydroxylamine]
MV MPR ([1]; 1 mpk IV, 20% HPβCD, pH 4): 261
MV ΔMV ([1]; 1 mpk IV, 20% HPβCD, pH 4): 152
MV DMV [1, 3]: 152
MV MPR [1, 3]: 261

CCCNc1nc(NCCC)nc(N(C)NC)n1 [XLIX, N-(4,6-Bis-n-propylamino-[1,3,5]triazin-2-yl)-N,N′-dimethyl-hydrazine]
MV MPR ([1]; 1 mpk IV, 20% HPβCD, pH 5): 338
MV ΔMV ([1]; 1 mpk IV, 20% HPβCD, pH 5): 216

CCCNc1nc(N)nc(N(C)OC)n1 [XLVII, 6-(Methoxy(methyl)amino)-N2-propyl-1,3,5-triazine-2,4-diamine]
MV MPR ([1]; 1 mpk IV, 20% HPβCD, pH 5): 150.73
MV ΔMV ([1]; 1 mpk IV, 20% HPβCD, pH 5): 61.48

CCCNc1nc(NCCC)nc(N(C)O)n1 [XLVIII, N-(4,6-Bis-n-propylamino-[1,3,5]triazin-2-yl)-N-methyl-hydroxylamine]
MV MPR ([1]; 1 mpk IV, 15/65/20, pH 5): 114
MV ΔMV ([1]; 1 mpk IV, 15/65/20, pH 5): 30.13

CNc1nc(NC)nc(N(C)OC)n1 [XX, N-(4,6-Bis-methylamino-[1,3,5]triazin-2-yl)-N,O-dimethyl-hydroxylamine hydrochloride]
MV MPR ([1]; 1 mpk IV, 20% HPβCD, pH 4-6): 213
MV ΔMV ([1]; 1 mpk IV, 20% HPβCD, pH 4-6): 60

CCNc1nc(NCC)nc(N(C)OC)n1 [XXII, N-(4,6-Bis-ethylamino-[1,3,5]triazin-2-yl)-N,O-dimethyl-hydroxylamine hydrochloride]
MV MPR ([1]; 1 mpk IV, 20% HPβCD, pH 4-6): 252
MV ΔMV ([1]; 1 mpk IV, 20% HPβCD, pH 4-6): 130

CON(C)c1nc(NCC(C)C)nc(NCC(C)C)n1 [XXIX, N-(Bis-4,6-(2-methylpropylamino)) [1,3,5]triazin-2-yl)-N,O-dimethyl-hydroxylamine hydrochloride]
MV MPR ([1]; 1 mpk IV, 20% HPβCD, pH 4-6): 253
MV ΔMV ([1]; 1 mpk IV, 20% HPβCD, pH 4-6): 161

CCCNc1nc(NCC2CC2)nc(N(C)OC)n1 [XXV, N-(4-Cyclopropylmethyl)-N-(6-n-propylamino) [1,3,5]triazin-2-yl)-N,O-dimethyl-hydroxylamine hydrochloride]
MV MPR ([1]; 1 mpk IV, 20% HPβCD, pH 4-6): 257
MV ΔMV ([1]; 1 mpk IV, 20% HPβCD, pH 4-6): 126
solubility [2]: ~210 µg/mL

CON(C)c1nc(NC2CC2)nc(NC2CC2)n1 [XXXIII, 4,6-Bis-N-cyclopropylamino-[1,3,5]triazin-2-yl)-N,O-dimethyl-hydroxylamine hydrochloride]
MV MPR ([1]; 1 mpk IV, 20% HPβCD, pH 4-6): 147
MV ΔMV ([1]; 1 mpk IV, 20% HPβCD, pH 4-6): 53

CON(C)c1nc(NCC(C)(C)C)nc(NCC(C)(C)C)n1.Cl [XXXI]
MV DMV [1, 3]: 43
MV MPR [1, 3]: 140
